Values after ≈ are worked out from the molar mass of the structure shown.
System: Escherichia coli PG8
Assay: β-lactamase stability test, growth inhibition zone, no β-lactamase added
Format: cell-based
Settings: β-lactamase not added; test organism Escherichia coli PG8; drug 100 μg/ml; nutrient agar pH 7.0; read-out: diameter of growth inhibition zone
Text: (§1) TAN-591A, B, C are stable to various β-lactamases. The results of stability test of the antibiotic to two β-lactamases employing Escherichia coli PG8 as a test organism are shown in Table 5. […]

| Compound | zone of inhibition at 100 µg/mL [mm] |
| --- | --- |
| N=C(N)NCCCC(NC(=O)C(N)CO)C(O)CC(=O)OCC1=C(C(=O)O)N2C(=O)C(NC=O)(NC(=O)CCCC(N)C(=O)O)C2SC1 (stereo not drawn) [TAN-592A] | 28 |
| NCCCCC(NC(=O)C(CO)NC(=O)C(N)CO)C(O)CC(=O)OCC1=C(C(=O)O)N2C(=O)C(NC=O)(NC(=O)CCCC(N)C(=O)O)C2SC1 (stereo not drawn) [TAN-591B] | 23 |

System: Staphylococcus aureus FDA 209P
Assay: Antimicrobial spectrum, minimal inhibitory concentration (agar dilution)
Format: cell-based
Settings: FDA209P, hydrochloride, inoculum 1 loopful of about 10^6/ml
Text: (§2) *Culture medium: 17.5 g of Bacto antibiotic medium 3 (Difco), 5 g of Bact
(§3) yeast extract (Difco), 20 g of Bacto agar (Difco), 1 l of distilled water
(§4) The amount of inoculated microorganism: 1 loopful of about 10^6 /ml o
(§5) microorganism suspension.
(§6) *Medium: Bacto antibiotic medium (Difco) 17.5 g, Bacto yeast extract
(§7) (Difco) 5 g, Bacto agar (Difco) 20 g, distilled water 1 l, pH not

| Compound | MIC [µg/mL] |
| --- | --- |
| N=C(N)NCCCC(NC(=O)C(N)CO)C(O)CC(=O)OCC1=C(C(=O)O)N2C(=O)C(NC=O)(NC(=O)CCCC(N)C(=O)O)C2SC1 (stereo not drawn) [TAN-592A] | > 50 |
| NCCCCC(NC(=O)C(CO)NC(=O)C(N)CO)C(O)CC(=O)OCC1=C(C(=O)O)N2C(=O)C(NC=O)(NC(=O)CCCC(N)C(=O)O)C2SC1 (stereo not drawn) [TAN-591B] | > 100 |

System: Salmonella typhimurium IFO 12529
Assay: as above
Format: cell-based
Settings: Salmonella enterica, hydrochloride, inoculum 1 loopful of about 10^6/ml
Text: as §2, §3, §4, §5, §6, §7

| Compound | MIC [µg/mL] |
| --- | --- |
| N=C(N)NCCCC(NC(=O)C(N)CO)C(O)CC(=O)OCC1=C(C(=O)O)N2C(=O)C(NC=O)(NC(=O)CCCC(N)C(=O)O)C2SC1 (stereo not drawn) [TAN-592A] | 50 (≈ 71 µM) |
| NCCCCC(NC(=O)C(CO)NC(=O)C(N)CO)C(O)CC(=O)OCC1=C(C(=O)O)N2C(=O)C(NC=O)(NC(=O)CCCC(N)C(=O)O)C2SC1 (stereo not drawn) [TAN-591B] | 25 (≈ 32.8 µM) |

System: Klebsiella pneumoniae IFO 3317
Assay: as above
Format: cell-based
Settings: IFO3317, hydrochloride, inoculum 1 loopful of about 10^6/ml
Text: as §2, §3, §4, §5, §6, §7

| Compound | MIC [µg/mL] |
| --- | --- |
| N=C(N)NCCCC(NC(=O)C(N)CO)C(O)CC(=O)OCC1=C(C(=O)O)N2C(=O)C(NC=O)(NC(=O)CCCC(N)C(=O)O)C2SC1 (stereo not drawn) [TAN-592A] | 50 (≈ 71 µM) |
| NCCCCC(NC(=O)C(CO)NC(=O)C(N)CO)C(O)CC(=O)OCC1=C(C(=O)O)N2C(=O)C(NC=O)(NC(=O)CCCC(N)C(=O)O)C2SC1 (stereo not drawn) [TAN-591B] | 50 (≈ 65.5 µM) |

System: Bacillus subtilis NIHJ PCI 219
Assay: as above
Format: cell-based
Settings: hydrochloride, inoculum 1 loopful of about 10^6/ml
Text: as §2, §3, §4, §5, §6, §7

| Compound | MIC [µg/mL] |
| --- | --- |
| N=C(N)NCCCC(NC(=O)C(N)CO)C(O)CC(=O)OCC1=C(C(=O)O)N2C(=O)C(NC=O)(NC(=O)CCCC(N)C(=O)O)C2SC1 (stereo not drawn) [TAN-592A] | 12.5 (≈ 17.8 µM) |
| NCCCCC(NC(=O)C(CO)NC(=O)C(N)CO)C(O)CC(=O)OCC1=C(C(=O)O)N2C(=O)C(NC=O)(NC(=O)CCCC(N)C(=O)O)C2SC1 (stereo not drawn) [TAN-591B] | 25 (≈ 32.8 µM) |

System: Escherichia coli NIHJ JC-2
Assay: as above
Format: cell-based
Settings: NIHJJC2, hydrochloride, inoculum 1 loopful of about 10^6/ml
Text: as §2, §3, §4, §5, §6, §7

| Compound | MIC [µg/mL] |
| --- | --- |
| N=C(N)NCCCC(NC(=O)C(N)CO)C(O)CC(=O)OCC1=C(C(=O)O)N2C(=O)C(NC=O)(NC(=O)CCCC(N)C(=O)O)C2SC1 (stereo not drawn) [TAN-592A] | 12.5 (≈ 17.8 µM) |
| NCCCCC(NC(=O)C(CO)NC(=O)C(N)CO)C(O)CC(=O)OCC1=C(C(=O)O)N2C(=O)C(NC=O)(NC(=O)CCCC(N)C(=O)O)C2SC1 (stereo not drawn) [TAN-591B] | 25 (≈ 32.8 µM) |

System: Bacillus megaterium IFO 12108
Assay: as above
Format: cell-based
Settings: Priestia megaterium, IFO12108, hydrochloride, inoculum 1 loopful of about 10^6/ml
Text: as §2, §3, §4, §5, §6, §7

| Compound | MIC [µg/mL] |
| --- | --- |
| N=C(N)NCCCC(NC(=O)C(N)CO)C(O)CC(=O)OCC1=C(C(=O)O)N2C(=O)C(NC=O)(NC(=O)CCCC(N)C(=O)O)C2SC1 (stereo not drawn) [TAN-592A] | 12.5 (≈ 17.8 µM) |
| NCCCCC(NC(=O)C(CO)NC(=O)C(N)CO)C(O)CC(=O)OCC1=C(C(=O)O)N2C(=O)C(NC=O)(NC(=O)CCCC(N)C(=O)O)C2SC1 (stereo not drawn) [TAN-591B] | 12.5 (≈ 16.4 µM) |

System: Citrobacter freundii IFO 12681
Assay: as above
Format: cell-based
Settings: IFO12681, hydrochloride, inoculum 1 loopful of about 10^6/ml
Text: as §2, §3, §4, §5, §6, §7

| Compound | MIC [µg/mL] |
| --- | --- |
| N=C(N)NCCCC(NC(=O)C(N)CO)C(O)CC(=O)OCC1=C(C(=O)O)N2C(=O)C(NC=O)(NC(=O)CCCC(N)C(=O)O)C2SC1 (stereo not drawn) [TAN-592A] | 50 (≈ 71 µM) |
| NCCCCC(NC(=O)C(CO)NC(=O)C(N)CO)C(O)CC(=O)OCC1=C(C(=O)O)N2C(=O)C(NC=O)(NC(=O)CCCC(N)C(=O)O)C2SC1 (stereo not drawn) [TAN-591B] | 50 (≈ 65.5 µM) |

System: Proteus vulgalis IFO 3988
Assay: as above
Format: cell-based
Settings: hydrochloride, inoculum 1 loopful of about 10^6/ml
Text: as §2, §3, §4, §5, §6, §7

| Compound | MIC [µg/mL] |
| --- | --- |
| N=C(N)NCCCC(NC(=O)C(N)CO)C(O)CC(=O)OCC1=C(C(=O)O)N2C(=O)C(NC=O)(NC(=O)CCCC(N)C(=O)O)C2SC1 (stereo not drawn) [TAN-592A] | 12.5 (≈ 17.8 µM) |
| NCCCCC(NC(=O)C(CO)NC(=O)C(N)CO)C(O)CC(=O)OCC1=C(C(=O)O)N2C(=O)C(NC=O)(NC(=O)CCCC(N)C(=O)O)C2SC1 (stereo not drawn) [TAN-591B] | 25 (≈ 32.8 µM) |

System: Serratia marcescens IFO 12648
Assay: as above
Format: cell-based
Settings: IFO12648, hydrochloride, inoculum 1 loopful of about 10^6/ml
Text: as §2, §3, §4, §5, §6, §7

| Compound | MIC [µg/mL] |
| --- | --- |
| N=C(N)NCCCC(NC(=O)C(N)CO)C(O)CC(=O)OCC1=C(C(=O)O)N2C(=O)C(NC=O)(NC(=O)CCCC(N)C(=O)O)C2SC1 (stereo not drawn) [TAN-592A] | 50 (≈ 71 µM) |
| NCCCCC(NC(=O)C(CO)NC(=O)C(N)CO)C(O)CC(=O)OCC1=C(C(=O)O)N2C(=O)C(NC=O)(NC(=O)CCCC(N)C(=O)O)C2SC1 (stereo not drawn) [TAN-591B] | 50 (≈ 65.5 µM) |

System: Acinetobacter calcoaceticus IFO 12552
Assay: as above
Format: cell-based
Settings: IFO12552, hydrochloride, inoculum 1 loopful of about 10^6/ml
Text: as §2, §3, §4, §5, §6, §7

| Compound | MIC [µg/mL] |
| --- | --- |
| N=C(N)NCCCC(NC(=O)C(N)CO)C(O)CC(=O)OCC1=C(C(=O)O)N2C(=O)C(NC=O)(NC(=O)CCCC(N)C(=O)O)C2SC1 (stereo not drawn) [TAN-592A] | 1.56 (≈ 2.22 µM) |
| NCCCCC(NC(=O)C(CO)NC(=O)C(N)CO)C(O)CC(=O)OCC1=C(C(=O)O)N2C(=O)C(NC=O)(NC(=O)CCCC(N)C(=O)O)C2SC1 (stereo not drawn) [TAN-591B] | 3.13 (≈ 4.1 µM) |

System: Alcaligenes faecalis IFO 13111
Assay: as above
Format: cell-based
Settings: IFO13111, hydrochloride, inoculum 1 loopful of about 10^6/ml
Text: as §2, §3, §4, §5, §6, §7

| Compound | MIC [µg/mL] |
| --- | --- |
| N=C(N)NCCCC(NC(=O)C(N)CO)C(O)CC(=O)OCC1=C(C(=O)O)N2C(=O)C(NC=O)(NC(=O)CCCC(N)C(=O)O)C2SC1 (stereo not drawn) [TAN-592A] | 3.13 (≈ 4.45 µM) |
| NCCCCC(NC(=O)C(CO)NC(=O)C(N)CO)C(O)CC(=O)OCC1=C(C(=O)O)N2C(=O)C(NC=O)(NC(=O)CCCC(N)C(=O)O)C2SC1 (stereo not drawn) [TAN-591B] | 12.5 (≈ 16.4 µM) |

System: Pseudomonas aeruginosa IFO 3080
Assay: as above
Format: cell-based
Settings: IFO3080, hydrochloride, inoculum 1 loopful of about 10^6/ml
Text: as §2, §3, §4, §5, §6, §7

| Compound | MIC [µg/mL] |
| --- | --- |
| N=C(N)NCCCC(NC(=O)C(N)CO)C(O)CC(=O)OCC1=C(C(=O)O)N2C(=O)C(NC=O)(NC(=O)CCCC(N)C(=O)O)C2SC1 (stereo not drawn) [TAN-592A] | 50 (≈ 71 µM) |
| NCCCCC(NC(=O)C(CO)NC(=O)C(N)CO)C(O)CC(=O)OCC1=C(C(=O)O)N2C(=O)C(NC=O)(NC(=O)CCCC(N)C(=O)O)C2SC1 (stereo not drawn) [TAN-591B] | > 100 |

System: Brevibacterium thiogenitalis ATCC 19240
Assay: as above
Format: cell-based
Settings: Corynebacterium glutamicum, ATCC19240, hydrochloride, inoculum 1 loopful of about 10^6/ml
Text: as §2, §3, §4, §5, §6, §7

| Compound | MIC [µg/mL] |
| --- | --- |
| N=C(N)NCCCC(NC(=O)C(N)CO)C(O)CC(=O)OCC1=C(C(=O)O)N2C(=O)C(NC=O)(NC(=O)CCCC(N)C(=O)O)C2SC1 (stereo not drawn) [TAN-592A] | 3.13 (≈ 4.45 µM) |
| NCCCCC(NC(=O)C(CO)NC(=O)C(N)CO)C(O)CC(=O)OCC1=C(C(=O)O)N2C(=O)C(NC=O)(NC(=O)CCCC(N)C(=O)O)C2SC1 (stereo not drawn) [TAN-591B] | 6.25 (≈ 8.19 µM) |

System: not listed separately
Assay: Solubility in solvents
Format: physicochemical
Settings: dimethylsulfoxide, methanol, acetone, ethyl acetate; hydrochloride

| Compound | Solubility |
| --- | --- |
| N=C(N)NCCCC(NC(=O)C(N)CO)C(O)CC(=O)OCC1=C(C(=O)O)N2C(=O)C(NC=O)(NC(=O)CCCC(N)C(=O)O)C2SC1 (stereo not drawn) [TAN-592A] | Sparingly soluble |
| NCCCCC(NC(=O)C(CO)NC(=O)C(N)CO)C(O)CC(=O)OCC1=C(C(=O)O)N2C(=O)C(NC=O)(NC(=O)CCCC(N)C(=O)O)C2SC1 (stereo not drawn) [TAN-591B] | Sparingly soluble |

Same assay, conditions: water, aqueous acetone, aqueous alcohol; hydrochloride

| Compound | Solubility |
| --- | --- |
| N=C(N)NCCCC(NC(=O)C(N)CO)C(O)CC(=O)OCC1=C(C(=O)O)N2C(=O)C(NC=O)(NC(=O)CCCC(N)C(=O)O)C2SC1 (stereo not drawn) [TAN-592A] | Easily soluble |
| NCCCCC(NC(=O)C(CO)NC(=O)C(N)CO)C(O)CC(=O)OCC1=C(C(=O)O)N2C(=O)C(NC=O)(NC(=O)CCCC(N)C(=O)O)C2SC1 (stereo not drawn) [TAN-591B] | Easily soluble |

System: penicillinase
Assay: β-lactamase stability test, growth inhibition zone with penicillinase
Format: cell-based
Settings: penicillinase added; test organism Escherichia coli PG8; drug 100 μg/ml; nutrient agar pH 7.0
Text: as §1

| Compound | diameter of growth inhibition zone [mm] |
| --- | --- |
| N=C(N)NCCCC(NC(=O)C(N)CO)C(O)CC(=O)OCC1=C(C(=O)O)N2C(=O)C(NC=O)(NC(=O)CCCC(N)C(=O)O)C2SC1 (stereo not drawn) [TAN-592A] | 28 |
| NCCCCC(NC(=O)C(CO)NC(=O)C(N)CO)C(O)CC(=O)OCC1=C(C(=O)O)N2C(=O)C(NC=O)(NC(=O)CCCC(N)C(=O)O)C2SC1 (stereo not drawn) [TAN-591B] | 23 |

System: cephalosporinase
Assay: β-lactamase stability test, growth inhibition zone with cephalosporinase
Format: cell-based
Settings: cephalosporinase added; test organism Escherichia coli PG8; drug 100 μg/ml; nutrient agar pH 7.0
Text: as §1

| Compound | diameter of growth inhibition zone [mm] |
| --- | --- |
| N=C(N)NCCCC(NC(=O)C(N)CO)C(O)CC(=O)OCC1=C(C(=O)O)N2C(=O)C(NC=O)(NC(=O)CCCC(N)C(=O)O)C2SC1 (stereo not drawn) [TAN-592A] | 28 |
| NCCCCC(NC(=O)C(CO)NC(=O)C(N)CO)C(O)CC(=O)OCC1=C(C(=O)O)N2C(=O)C(NC=O)(NC(=O)CCCC(N)C(=O)O)C2SC1 (stereo not drawn) [TAN-591B] | 23 |
